Measurements from patent US20170008888A1 (KYORIN PHARMACEUTICAL CO., LTD., priority 2014, published 2017).

Columns and labels:
[1] = target: T1, BRD4 bromodomain domain I [BRD4(1)] (Homo sapiens, UniProt O60885); assay: BRD4 bromodomain domain 1 inhibition assay (TR-FRET); format: binding; conditions: for inhibition at 10 µM: screening concentration 10 μM
T1 construct: BRD4 bromodomain domain I [BRD4(1)]; purchased Cayman Chemicals
Experimental: The inhibitory activity of test compounds on the bromodomain, BRD4 bromodomain domain I [BRD4(1)], were determined via TR-FRET after a slight modification of the manufacturer's protocol (Cayman Chemicals, Ann Arbor, Mich.). Briefly, compounds were diluted to a 20× ([…]) concentration in DMSO. 100 nL of 20× compounds were then dry stamped into triplicate wells of black, low volume 384 well plates (Aurora Biotechnologies, Carlsbad, Calif.) using the Mosquito liquid handler (TPP Labtech, Melbourn, UK). 20× compounds were then diluted to a 4× (40 μM) concentration in Assay Buffer to result in 2% DMSO content. […] JQ1 at 10 μM or 0.5% DMSO final concentrations were used as the positive and negative controls, respectively, to set the assay window. The fluorescence was read in a time-resolved format on the Biotec Synergy 2 plate reader by exciting the signal at 340 nm and reading emissions at 620 and 670, using a 100 μs delay and 200 μs read window. […] Briefly, TR-FRET ratio values were normalized to the average TR-FRET ratio value given by 10 μM JQ1. […]

[2] = target: T2, ERK5 (Homo sapiens, UniProt Q13164); assay: Probe-based (AX9989 acyl phosphate ATP probe) kinase profiling in Jurkat lysate: ERK5; format: binding; conditions: for IC50: calculated from percent inhibition of AX9989 labeling and the screening concentration, Jurkat lysate; for inhibition at 1 µM: screening concentration 1.0 μM; for inhibition at 1 µM / inhibition at 0.1 µM: read-out: Kinase inhibition % at indicated screening concentration: ERK5; for inhibition at 0.1 µM: screening concentration 0.1 μM
T2 construct: screened for activity against several kinases in Jurkat cells; endogenous in cells; host or cells: Jurkat cell lysate
T2 sequence (Q13164 whole entry): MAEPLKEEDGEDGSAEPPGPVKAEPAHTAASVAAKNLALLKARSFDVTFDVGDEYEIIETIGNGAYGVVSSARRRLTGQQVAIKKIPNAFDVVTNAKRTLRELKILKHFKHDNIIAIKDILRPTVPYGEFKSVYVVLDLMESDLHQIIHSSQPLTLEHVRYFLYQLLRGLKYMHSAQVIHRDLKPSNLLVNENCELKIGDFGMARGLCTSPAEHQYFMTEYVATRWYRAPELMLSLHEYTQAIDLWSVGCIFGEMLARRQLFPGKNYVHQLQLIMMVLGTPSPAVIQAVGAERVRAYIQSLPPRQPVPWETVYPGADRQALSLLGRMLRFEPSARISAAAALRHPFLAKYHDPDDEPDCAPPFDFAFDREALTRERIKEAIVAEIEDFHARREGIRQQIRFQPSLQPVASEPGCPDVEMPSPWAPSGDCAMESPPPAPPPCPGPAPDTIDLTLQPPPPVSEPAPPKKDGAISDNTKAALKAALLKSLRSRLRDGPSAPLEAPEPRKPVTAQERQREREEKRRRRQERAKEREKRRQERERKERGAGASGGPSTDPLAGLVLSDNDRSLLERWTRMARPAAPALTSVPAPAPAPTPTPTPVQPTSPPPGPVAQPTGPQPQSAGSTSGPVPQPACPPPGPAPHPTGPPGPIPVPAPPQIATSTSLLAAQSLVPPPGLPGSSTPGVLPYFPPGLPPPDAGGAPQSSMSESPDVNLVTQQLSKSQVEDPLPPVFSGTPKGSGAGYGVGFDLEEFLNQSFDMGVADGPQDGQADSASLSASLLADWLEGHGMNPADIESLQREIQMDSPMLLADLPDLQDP
Outline: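 Gel-filtered Jurkat lysate (5 mg/ml, 20 mM MnCl2) preincubated 15 min at room temperature with compound, then labelled with 5 μM AX9989 acyl phosphate ATP probe. Probe-labelled ERK5 active-site peptides quantified by LC/MS after trypsin digestion and streptavidin capture; IC50 calculated from percent inhibition at the screening concentration.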

[3] = target: T3, TAO2 (Homo sapiens, UniProt Q9UL54); assay: Probe-based (AX9989) kinase profiling in Jurkat lysate: TAO2; format: binding; conditions: read-out: Kinase inhibition % at indicated screening concentration: TAO2; for inhibition at 1 µM: screening concentration 1.0 μM; for inhibition at 0.1 µM: screening concentration 0.1 μM
T3 construct: screened for activity against several kinases in Jurkat cells; endogenous in cells; host or cells: Jurkat cell lysate
T3 sequence (Q9UL54 1-1235): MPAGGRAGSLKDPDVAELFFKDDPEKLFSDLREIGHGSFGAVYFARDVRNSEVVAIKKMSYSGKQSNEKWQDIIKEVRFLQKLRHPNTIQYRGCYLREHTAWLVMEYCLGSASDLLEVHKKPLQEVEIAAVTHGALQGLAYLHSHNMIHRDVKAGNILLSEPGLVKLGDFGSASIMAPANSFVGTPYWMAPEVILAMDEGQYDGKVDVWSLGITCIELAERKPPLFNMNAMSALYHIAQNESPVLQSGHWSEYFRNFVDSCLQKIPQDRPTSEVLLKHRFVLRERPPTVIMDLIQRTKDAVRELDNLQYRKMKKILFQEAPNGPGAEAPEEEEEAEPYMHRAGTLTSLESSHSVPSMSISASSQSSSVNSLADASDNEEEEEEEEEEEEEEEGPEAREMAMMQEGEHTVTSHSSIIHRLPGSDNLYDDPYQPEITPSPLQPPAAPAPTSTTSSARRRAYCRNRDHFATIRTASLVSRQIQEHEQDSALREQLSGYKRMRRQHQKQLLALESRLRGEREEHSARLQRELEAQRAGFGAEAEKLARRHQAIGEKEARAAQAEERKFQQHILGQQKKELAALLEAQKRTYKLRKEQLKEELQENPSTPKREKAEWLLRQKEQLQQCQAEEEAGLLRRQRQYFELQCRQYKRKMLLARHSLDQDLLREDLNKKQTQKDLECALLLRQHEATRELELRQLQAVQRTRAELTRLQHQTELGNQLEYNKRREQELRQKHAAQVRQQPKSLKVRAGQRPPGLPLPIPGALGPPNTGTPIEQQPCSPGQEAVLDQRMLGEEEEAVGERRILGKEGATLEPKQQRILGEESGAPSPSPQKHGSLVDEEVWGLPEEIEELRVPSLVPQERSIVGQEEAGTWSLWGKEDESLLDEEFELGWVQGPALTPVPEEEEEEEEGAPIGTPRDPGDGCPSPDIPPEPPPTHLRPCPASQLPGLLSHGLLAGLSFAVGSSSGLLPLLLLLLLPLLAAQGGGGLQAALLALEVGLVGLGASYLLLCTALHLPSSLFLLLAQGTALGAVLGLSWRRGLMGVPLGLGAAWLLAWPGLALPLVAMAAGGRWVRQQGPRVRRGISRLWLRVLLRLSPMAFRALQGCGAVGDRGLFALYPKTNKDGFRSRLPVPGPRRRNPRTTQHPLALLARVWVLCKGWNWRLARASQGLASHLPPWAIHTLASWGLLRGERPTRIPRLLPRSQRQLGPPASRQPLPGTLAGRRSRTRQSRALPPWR
Outline: (§1)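 Gel-filtered Jurkat lysate (HEPES pH 7.5, 20 mM MnCl2, 5 mg/ml) was pre-incubated 15 min with compound at room temperature, then labelled with 5 μM acyl-phosphate ATP probe AX9989. Tryptic probe-labelled active-site peptides were streptavidin-captured and quantified by LC/MS. Percent inhibition reflected the decrease in labelled-peptide intensity versus no compound.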

[4] = target: T4, ACK (Homo sapiens, UniProt Q07912); assay: Probe-based (AX9989) kinase profiling in Jurkat lysate: ACK; format: binding; conditions: read-out: Kinase inhibition % at indicated screening concentration: ACK; for inhibition at 1 µM: screening concentration 1.0 μM; for inhibition at 0.1 µM: screening concentration 0.1 μM
T4 construct: screened for activity against several kinases in Jurkat cells; endogenous in cells; host or cells: Jurkat cell lysate
T4 sequence (Q07912 whole entry): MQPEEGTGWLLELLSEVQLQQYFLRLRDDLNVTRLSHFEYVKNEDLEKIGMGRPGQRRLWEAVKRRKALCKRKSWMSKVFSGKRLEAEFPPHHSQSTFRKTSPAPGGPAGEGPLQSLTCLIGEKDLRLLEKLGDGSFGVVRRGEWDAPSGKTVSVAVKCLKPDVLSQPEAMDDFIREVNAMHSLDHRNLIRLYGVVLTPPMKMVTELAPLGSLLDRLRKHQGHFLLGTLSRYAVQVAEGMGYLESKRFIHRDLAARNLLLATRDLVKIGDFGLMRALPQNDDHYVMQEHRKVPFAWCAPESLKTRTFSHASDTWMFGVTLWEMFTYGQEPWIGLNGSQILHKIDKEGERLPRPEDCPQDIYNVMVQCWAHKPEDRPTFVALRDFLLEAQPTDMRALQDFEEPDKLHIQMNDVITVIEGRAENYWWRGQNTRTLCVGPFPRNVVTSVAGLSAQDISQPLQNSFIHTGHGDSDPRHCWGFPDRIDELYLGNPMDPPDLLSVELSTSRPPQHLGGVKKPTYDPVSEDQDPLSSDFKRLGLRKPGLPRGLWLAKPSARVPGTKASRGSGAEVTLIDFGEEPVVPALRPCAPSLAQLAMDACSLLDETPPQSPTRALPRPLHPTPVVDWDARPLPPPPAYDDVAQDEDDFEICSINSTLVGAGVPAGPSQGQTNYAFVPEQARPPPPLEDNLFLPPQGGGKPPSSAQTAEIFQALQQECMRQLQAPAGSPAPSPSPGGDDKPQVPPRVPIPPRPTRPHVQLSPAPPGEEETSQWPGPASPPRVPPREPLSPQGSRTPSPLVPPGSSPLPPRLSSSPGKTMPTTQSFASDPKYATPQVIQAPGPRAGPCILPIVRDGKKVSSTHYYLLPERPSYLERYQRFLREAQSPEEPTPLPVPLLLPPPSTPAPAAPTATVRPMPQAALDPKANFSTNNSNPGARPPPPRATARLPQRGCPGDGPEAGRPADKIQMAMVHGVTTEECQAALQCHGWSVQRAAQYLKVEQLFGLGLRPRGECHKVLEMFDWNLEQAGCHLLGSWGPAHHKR
Outline: as §1

[5] = target: T5, AurA (Homo sapiens, UniProt O14965); assay: Probe-based (AX9989) kinase profiling in Jurkat lysate: AurA; format: binding; conditions: read-out: Kinase inhibition % at indicated screening concentration: AurA; for inhibition at 1 µM: screening concentration 1.0 μM; for inhibition at 0.1 µM: screening concentration 0.1 μM
T5 construct: screened for activity against several kinases in Jurkat cells; endogenous in cells; host or cells: Jurkat cell lysate
T5 sequence (O14965 1-403): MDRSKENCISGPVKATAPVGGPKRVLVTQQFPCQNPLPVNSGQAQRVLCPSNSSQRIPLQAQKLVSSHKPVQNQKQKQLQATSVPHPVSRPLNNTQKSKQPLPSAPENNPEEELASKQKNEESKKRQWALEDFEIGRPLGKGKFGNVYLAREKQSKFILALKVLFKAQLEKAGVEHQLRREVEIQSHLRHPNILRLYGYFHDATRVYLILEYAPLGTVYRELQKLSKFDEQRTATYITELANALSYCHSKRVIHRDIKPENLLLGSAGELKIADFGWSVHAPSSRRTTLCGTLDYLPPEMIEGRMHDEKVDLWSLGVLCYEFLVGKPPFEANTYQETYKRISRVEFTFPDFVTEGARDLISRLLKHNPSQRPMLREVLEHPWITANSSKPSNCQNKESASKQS
Outline: as §1

[6] = tested on: AurB or AurC; assay: Probe-based (AX9989) kinase profiling in Jurkat lysate: AurB or AurC; format: binding
Outline: as §1

[7] = tested on: AMPKa1 or AMPKa2; assay: Probe-based (AX9989) kinase profiling in Jurkat lysate: AMPKa1 or AMPKa2; format: binding
Outline: as §1

[8] = target: T6, JAK1 (Homo sapiens, UniProt P23458); assay: Probe-based (AX9989) kinase profiling in Jurkat lysate: JAK1; format: binding; conditions: read-out: Kinase inhibition % at indicated screening concentration: JAK1; for inhibition at 1 µM: screening concentration 1.0 μM; for inhibition at 0.1 µM: screening concentration 0.1 μM
T6 construct: screened for activity against several kinases in Jurkat cells; endogenous in cells; host or cells: Jurkat cell lysate
T6 sequence (P23458 whole entry): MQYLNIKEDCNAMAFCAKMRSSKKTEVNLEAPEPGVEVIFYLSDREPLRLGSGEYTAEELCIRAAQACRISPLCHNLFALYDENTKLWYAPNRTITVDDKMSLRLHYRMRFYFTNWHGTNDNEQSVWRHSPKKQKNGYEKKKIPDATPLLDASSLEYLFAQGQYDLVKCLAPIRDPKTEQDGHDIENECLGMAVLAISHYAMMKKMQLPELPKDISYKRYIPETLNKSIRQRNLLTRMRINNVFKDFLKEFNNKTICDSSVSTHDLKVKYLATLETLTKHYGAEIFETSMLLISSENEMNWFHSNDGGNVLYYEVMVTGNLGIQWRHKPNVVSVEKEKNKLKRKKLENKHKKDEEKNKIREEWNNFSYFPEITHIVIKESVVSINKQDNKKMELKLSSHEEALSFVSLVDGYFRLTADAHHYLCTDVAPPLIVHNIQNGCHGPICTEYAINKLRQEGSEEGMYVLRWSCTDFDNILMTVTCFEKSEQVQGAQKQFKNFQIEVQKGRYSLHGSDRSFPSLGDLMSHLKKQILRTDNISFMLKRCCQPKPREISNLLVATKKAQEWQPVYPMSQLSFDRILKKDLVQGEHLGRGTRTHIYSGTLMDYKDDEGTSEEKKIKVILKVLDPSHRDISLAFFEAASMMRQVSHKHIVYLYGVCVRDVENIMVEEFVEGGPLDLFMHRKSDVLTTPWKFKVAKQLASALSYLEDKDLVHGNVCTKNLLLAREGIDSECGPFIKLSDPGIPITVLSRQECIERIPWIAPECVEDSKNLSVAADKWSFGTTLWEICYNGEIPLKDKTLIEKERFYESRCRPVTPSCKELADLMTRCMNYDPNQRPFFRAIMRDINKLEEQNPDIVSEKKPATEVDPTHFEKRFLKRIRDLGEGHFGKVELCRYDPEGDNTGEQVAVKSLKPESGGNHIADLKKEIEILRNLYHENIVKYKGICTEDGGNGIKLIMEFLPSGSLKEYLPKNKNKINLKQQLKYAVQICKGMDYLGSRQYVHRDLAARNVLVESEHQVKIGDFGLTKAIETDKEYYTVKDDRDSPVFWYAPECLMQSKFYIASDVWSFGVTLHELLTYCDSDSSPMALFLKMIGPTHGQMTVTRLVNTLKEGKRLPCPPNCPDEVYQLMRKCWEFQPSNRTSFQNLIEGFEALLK
Outline: as §1

[9] = tested on: ABL or ARG; assay: Probe-based (AX9989) kinase profiling in Jurkat lysate: ABL or ARG; format: binding
Outline: as §1

[10] = tested on: human PBMCs; assay: Human PBMC TNF-α response to endotoxin (ELISA); format: cell-based; conditions: 0.1 μg/ml LPS 16 h, read-out: EC50 for the inhibition of the human PBMC TNF-α response to endotoxin, ave. ± S.D.
Outline: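 PBMCs at 2e6 cells/ml in RPMI 1640 with 10% charcoal-dextran-treated FBS were pre-treated 1 h at 37 °C with compound (4-point 1:5 dilution from 10 μM). Stimulation with 0.1 μg/ml E. coli 0111:B4 LPS for 16 h; TNF-α measured by ELISA (A450) in 25-fold diluted supernatant.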

Row | SMILES | inhibition at 10 µM [1] | IC50 [2] | inhibition at 1 µM [2] | inhibition at 1 µM [3] | inhibition at 1 µM [4] | inhibition at 1 µM [5] | Kinase inhibition % at indicated screening concentration: AurB or AurC ([6]; screening concentration 1.0 μM) | Kinase inhibition % at indicated screening concentration: AMPKa1 or AMPKa2 ([7]; screening concentration 1.0 μM) | inhibition at 1 µM [8] | Kinase inhibition % at indicated screening concentration: ABL or ARG ([9]; screening concentration 1.0 μM) | also measured
1 | CCOc1cc(C(=O)NCCN(C)C)ccc1Nc1cc2c(cn1)N(C)C(=O)c1ccccc1N2C [Compound 1] | 70 to 85% | 101 to 500 nM | 75 to 90% | – | – | – | – | – | – | – | –
2 | CCOc1cc(C(=O)NC2CC2)ccc1Nc1cc2c(cn1)N(C)C(=O)c1ccccc1N2C [Compound 2] | < 70% | > 500 nM | ≤ 35% | – | – | – | – | – | – | – | –
3 | CCOc1cc(C(=O)Nc2ccncc2)ccc1Nc1cc2c(cn1)N(C)C(=O)c1ccccc1N2C [Compound 7] | < 70% | > 500 nM | 35 to 50% | ≤ 35% | ≤ 35% | ≤ 35% | E (E is ≦35%) | E (E is ≦35%) | ≤ 35% | E (E is ≦35%) | –
4 | COc1c(Nc2cc3c(cn2)N(C)C(=O)c2ccccc2N3C)cccc1C(=O)O [Compound 9] | < 70% | > 500 nM | ≤ 35% | ≤ 35% | ≤ 35% | ≤ 35% | E (E is ≦35%) | E (E is ≦35%) | ≤ 35% | E (E is ≦35%) | –
5 | CCOc1cc(C(=O)N2CCC(NC3CC3)C2)ccc1Nc1cc2c(cn1)N(C)C(=O)c1ccccc1N2C (stereo not drawn) [Compound 20] | 70 to 85% | ≤ 50 nM | – | – | – | – | – | – | – | – | inhibition at 0.1 µM [3]: ≤ 35%; inhibition at 0.1 µM [4]: ≤ 35%; inhibition at 0.1 µM [5]: ≤ 35%; Kinase inhibition % at indicated screening concentration: AurB or AurC ([6]; screening concentration 0.1 μM): E (E is ≦35%); inhibition at 0.1 µM [2]: 75 to 90%; Kinase inhibition % at indicated screening concentration: AMPKa1 or AMPKa2 ([7]; screening concentration 0.1 μM): E (E is ≦35%); inhibition at 0.1 µM [8]: ≤ 35%; Kinase inhibition % at indicated screening concentration: ABL or ARG ([9]; screening concentration 0.1 μM): E (E is ≦35%)
6 | CN1C(=O)c2ccccc2N(C)c2cc(NC3CCC(C(=O)O)CC3)ncc21 (stereo not drawn) [Compound 23] | < 70% | > 500 nM | 35 to 50% | ≤ 35% | ≤ 35% | ≤ 35% | E (E is ≦35%) | E (E is ≦35%) | ≤ 35% | E (E is ≦35%) | –
7 | CCOc1cc(C(=O)N2CC[C@@H](NC)C2)ccc1Nc1cc2c(cn1)N(C)C(=O)c1ccccc1N2C [Compound 26] | > 85% | ≤ 50 nM | – | – | – | – | – | – | – | – | inhibition at 0.1 µM [3]: ≤ 35%; inhibition at 0.1 µM [4]: ≤ 35%; inhibition at 0.1 µM [5]: ≤ 35%; Kinase inhibition % at indicated screening concentration: AurB or AurC ([6]; screening concentration 0.1 μM): E (E is ≦35%); inhibition at 0.1 µM [2]: 75 to 90%; Kinase inhibition % at indicated screening concentration: AMPKa1 or AMPKa2 ([7]; screening concentration 0.1 μM): E (E is ≦35%); inhibition at 0.1 µM [8]: ≤ 35%; Kinase inhibition % at indicated screening concentration: ABL or ARG ([9]; screening concentration 0.1 μM): E (E is ≦35%)
8 | CCOc1cc(C(=O)N2CC[C@H](NC3CCN(C)CC3)C2)ccc1Nc1cc2c(cn1)N(C)C(=O)c1ccccc1N2C [Compound T61] | > 85% | – | – | – | – | – | – | – | – | – | EC50 [10]: 420 nM
9 | CN1C(=O)c2ccccc2S(=O)(=O)c2cc(N[C@H]3CC[C@H](O)CC3)ncc21 [Compound T127] | – | – | – | – | – | – | – | – | – | – | IC50 [1]: > 5000 nM; EC50 [10]: 4600 nM
